{"source": "patent US20190201418A1", "about": "“TREATMENT OF UTERINE FIBROIDS BY INTRAVAGINAL ADMINISTRATION OF A LOW DOSE OF SELECTIVE PROGESTERONE RECEPTOR MODULATOR (SPRM), ANTI-PROGESTIN, OR ANTI-PROGESTATIONAL AGENT” (ARSTAT, INC., priority 2011, published 2019)", "origin": "cited, not measured here", "key": {"[1]": {"system": "endometrial lining of the uterus", "conditions": "oral"}, "glucocorticoid blockade": {"system": "glucocorticoid blockade", "conditions": "in vivo"}, "[2]": {"system": "symptomatic uterine fibroids", "conditions": "oral 5-mg and 10-mg tablets, Phase III"}, "liver enzymes": {"system": "liver enzymes", "conditions": "oral"}, "[3]": {"conditions": "oral mifepristone 10 mg/day or higher"}}, "data": [{"smiles": "COC[C@]1(OC)CC[C@H]2[C@@H]3CCC4=CC(=O)CCC4=C3[C@@H](c3ccc(/C=N/O)cc3)C[C@@]21C", "note": "[asoprisnil]", "values": [{"measurement": "safety finding leading to termination of the Phase III studies", "setting": "[1]", "value": "changes in the endometrial lining of the uterus that resulted in additional invasive procedures in some patients"}]}, {"smiles": "CC#C[C@]1(O)CC[C@H]2[C@@H]3CCC4=CC(=O)CCC4=C3[C@@H](c3ccc(N(C)C)cc3)C[C@@]21C", "note": "[mifepristone]", "values": [{"measurement": "reduction of uterine volume and incidence of amenorrhea", "setting": "uterine fibroids; oral mifepristone 2.5 mg/day", "value": "appreciably smaller reduction of uterine volume and a lower incidence of amenorrhea"}, {"measurement": "ability to reduce uterine volume and eliminate fibroid-related symptoms", "setting": "uterine fibroids; oral mifepristone 5 mg", "value": "limited"}, {"measurement": "incidence of side effects (endometrial hyperplasia, hot flashes, elevated liver enzymes)", "setting": "uterine fibroids; [3]", "value": "seems to be greater than desired"}, {"measurement": "reduction of uterine and fibroid volumes and related symptoms", "setting": "uterine fibroids; [3]", "value": "effective in the reduction of uterine and fibroid volumes and related symptoms"}, {"measurement": "dose at which glucocorticoid blockade is reported", "setting": "glucocorticoid blockade", "value": "≥ 50", "unit": "mg"}]}, {"smiles": "CC(=O)O[C@]1(C(C)=O)CC[C@H]2[C@@H]3CCC4=CC(=O)CCC4=C3[C@@H](c3ccc(N(C)C)cc3)C[C@@]21C", "note": "[ulipristal acetate]", "values": [{"measurement": "efficacy and safety in the treatment of symptomatic uterine fibroids", "setting": "[2]", "value": "confirmed the efficacy and safety"}]}, {"smiles": "COCC(=O)[C@@]1(OC(C)=O)CC[C@H]2[C@@H]3CCC4=CC(=O)CCC4=C3[C@@H](c3ccc(N(C)C)cc3)C[C@@]21C", "note": "[CDB-4124]", "values": [{"measurement": "safety finding leading to suspension of the Phase III studies", "setting": "liver enzymes", "value": "significant increases in liver enzymes"}]}]}
